Here are results for 21 compounds from PubChem BioAssay (NCI).

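Assay format: 96-well plates, 48-hour exposure. At the TGI there is no net growth.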 Bounds are passed on as bounds.

One experiment concerns SNB-75 CNS. The experiment can be described thus: NCI anticancer screen, dose series, 48 h.
`O=C1/C(=C/c2cccc(Br)c2)CCc2ccccc21` returned a TGI of 30 µM.

In turn, `CN(CCCCCl)P(=O)(OCc1ccc([N+](=O)[O-])o1)OC[C@H]1O[C@@H](n2cc(F)c(=O)[nH]c2=O)C[C@@H]1O` (stereo partly drawn) showed a TGI of 6.95 µM.

Compound `CC1C2(C)OC(=N)C(C#N)(C(c3ccccc3)O2)C1(C#N)C#N` (stereo not drawn) returned a TGI greater than 100 µM.

`O=C1NC2ON=C(c3ccccc3)C2C2ON=C(c3ccccc3)N12` (stereo not drawn) returned a TGI greater than 100 µM.

With `COC(=O)C1(C(=O)OC)Cc2ccc(OC)cc2C2=C1C(=O)c1ccccc1C2=O`, the TGI was 35.8 µM.

Compound `COc1ccc(Nc2nnc(-c3nsc4ccccc34)s2)cc1` displayed a TGI of 17.3 µM.

In turn, `C=CCNC1=C2C[C@@H](C)C[C@@H](OC)[C@H](OC(=O)CCN)[C@H](C)/C=C(\C)[C@@H](OC(N)=O)[C@H](OC)/C=C\C=C(/C)C(=O)NC(=CC1=O)C2=O` registered a TGI of 9.63 µM.

For the compound `C1=NCCN2CCN(CCN=Cc3ccc(cc3)OCc3cccc(n3)COc3ccc1cc3)CC2`, the TGI was greater than 50 µM.

In turn, `C(=C\c1cccs1)/c1cccc(/C=C/c2cccs2)n1` returned a TGI of 79.4 µM.

As for `CC(CCN)(CCN)[N+](=O)[O-]`, the TGI is greater than 100 µM.

In turn, `Cn1c(=O)c(Br)c(C=O)n(CCO[N+](=O)[O-])c1=O` came in with a TGI of 27 µM.

Consider `C/C(CC(=O)Nc1ccc([N+](=O)[O-])cc1)=N\NC(N)=O`, for which the TGI is greater than 100 µM.

Take `CCOC(=O)c1cccn1S(=O)(=O)c1cc(Cl)ccc1NC(=O)CC`: the TGI is greater than 100 µM.

Regarding `CCCCOC(=O)C1C2CCC(O2)C1C(=O)OCCCC` (stereo not drawn), the TGI is greater than 100 µM.

Take `O=C([O-])C[n+]1ccccc1`: the TGI is greater than 100 µM.

Consider `CN(C)CCCSc1nc2ccccc2[nH]1`, for which the TGI was greater than 100 µM.

For the next experiment, the system named is CCRF-CEM leukemia. Kind of experiment: NCI anticancer screen, dose series, 48 h.
In the case of `O=C1/C(=C/c2cccc(Br)c2)CCc2ccccc21`, the TGI stood at 13.4 µM.

In turn, `Cc1ccc(S(=O)(=O)n2cc(-c3cc(C(F)(F)F)ccn3)c3cc(Br)ccc32)cc1` returned a TGI greater than 100 µM.

Turning to `CN(CCCCCl)P(=O)(OCc1ccc([N+](=O)[O-])o1)OC[C@H]1O[C@@H](n2cc(F)c(=O)[nH]c2=O)C[C@@H]1O` (stereo partly drawn), the TGI was 20.7 µM.

Turning to `CC1C2(C)OC(=N)C(C#N)(C(c3ccccc3)O2)C1(C#N)C#N` (stereo not drawn), the TGI was 67.6 µM.

Consider `COC(=O)C1(C(=O)OC)Cc2ccc(OC)cc2C2=C1C(=O)c1ccccc1C2=O`, for which the TGI is 11.8 µM.

`COCCOC(=O)c1c(C)n([O-])c2cc(Cl)c(Cl)cc2[n+]1=O`: the TGI came out at 64.7 µM.

`COc1ccc2[nH]cc(CCNC(=O)[C@H](Cc3ccccc3)NC(=O)[C@@H](NCC(F)(F)F)C(C)C)c2c1`: the TGI was 7.89 µM.

For `COc1ccc(Nc2nnc(-c3nsc4ccccc34)s2)cc1`, the TGI was greater than 100 µM.

Turning to `C1=NCCN2CCN(CCN=Cc3ccc(cc3)OCc3cccc(n3)COc3ccc1cc3)CC2`, the TGI is greater than 50 µM.

For the compound `C(=C\c1cccs1)/c1cccc(/C=C/c2cccs2)n1`, the TGI was greater than 100 µM.

`CC(CCN)(CCN)[N+](=O)[O-]` gave a TGI greater than 100 µM.

On to `Cn1c(=O)c(Br)c(C=O)n(CCO[N+](=O)[O-])c1=O`, for which the TGI stood at 5.25 µM.

The compound `C/C(CC(=O)Nc1ccc([N+](=O)[O-])cc1)=N\NC(N)=O` gave a TGI greater than 71.4 µM.

`CCOC(=O)c1cccn1S(=O)(=O)c1cc(Cl)ccc1NC(=O)CC` had a TGI greater than 100 µM.

As for `CCCCOC(=O)C1C2CCC(O2)C1C(=O)OCCCC` (stereo not drawn), the TGI was greater than 100 µM.

For the compound `C=CCN1C(=O)C=C(c2ccccc2)n2ncc3cccc1c32`, the TGI is greater than 100 µM.

The compound `O=C([O-])C[n+]1ccccc1` had a TGI greater than 100 µM.

`CSc1nc(C#N)c(/N=C\N(C)C)n1C` registered a TGI greater than 100 µM.

The next experiment relates to M14 melanoma. The experiment can be described thus: NCI anticancer screen, dose series, 48 h.
For the compound `O=C1/C(=C/c2cccc(Br)c2)CCc2ccccc21`, the TGI was found to be 29.4 µM.

On to `Cc1ccc(S(=O)(=O)n2cc(-c3cc(C(F)(F)F)ccn3)c3cc(Br)ccc32)cc1`, for which the TGI is greater than 100 µM.

`CN(CCCCCl)P(=O)(OCc1ccc([N+](=O)[O-])o1)OC[C@H]1O[C@@H](n2cc(F)c(=O)[nH]c2=O)C[C@@H]1O` (stereo partly drawn): the TGI is 20 µM.

`CC1C2(C)OC(=N)C(C#N)(C(c3ccccc3)O2)C1(C#N)C#N` (stereo not drawn) displayed a TGI of 28 µM.

Compound `O=C1NC2ON=C(c3ccccc3)C2C2ON=C(c3ccccc3)N12` (stereo not drawn) returned a TGI greater than 100 µM.

`COC(=O)C1(C(=O)OC)Cc2ccc(OC)cc2C2=C1C(=O)c1ccccc1C2=O`: the TGI is 34.5 µM.

Turning to `COCCOC(=O)c1c(C)n([O-])c2cc(Cl)c(Cl)cc2[n+]1=O`, the TGI was 41.9 µM.

Take `COc1ccc2[nH]cc(CCNC(=O)[C@H](Cc3ccccc3)NC(=O)[C@@H](NCC(F)(F)F)C(C)C)c2c1`: the TGI was found to be 34.1 µM.

`COc1ccc(Nc2nnc(-c3nsc4ccccc34)s2)cc1`: the TGI is greater than 100 µM.

`C=CCNC1=C2C[C@@H](C)C[C@@H](OC)[C@H](OC(=O)CCN)[C@H](C)/C=C(\C)[C@@H](OC(N)=O)[C@H](OC)/C=C\C=C(/C)C(=O)NC(=CC1=O)C2=O` displayed a TGI of 17.3 µM.

Compound `C1=NCCN2CCN(CCN=Cc3ccc(cc3)OCc3cccc(n3)COc3ccc1cc3)CC2` displayed a TGI greater than 50 µM.

The compound `C(=C\c1cccs1)/c1cccc(/C=C/c2cccs2)n1` displayed a TGI greater than 100 µM.

The compound `CC(CCN)(CCN)[N+](=O)[O-]` returned a TGI greater than 100 µM.

In the case of `Cn1c(=O)c(Br)c(C=O)n(CCO[N+](=O)[O-])c1=O`, the TGI was determined as 15 µM.

On to `C/C(CC(=O)Nc1ccc([N+](=O)[O-])cc1)=N\NC(N)=O`, for which the TGI was greater than 100 µM.

The compound `CCCCOC(=O)C1C2CCC(O2)C1C(=O)OCCCC` (stereo not drawn) displayed a TGI greater than 82.1 µM.

`C=CCN1C(=O)C=C(c2ccccc2)n2ncc3cccc1c32` had a TGI greater than 100 µM.

In the case of `O=C([O-])C[n+]1ccccc1`, the TGI was greater than 100 µM.

For the compound `CSc1nc(C#N)c(/N=C\N(C)C)n1C`, the TGI was greater than 100 µM.

`CN(C)CCCSc1nc2ccccc2[nH]1` gave a TGI greater than 100 µM.

In a further experiment the test system is HT29 colon. The experiment can be described thus: NCI anticancer screen, dose series, 48 h.
`O=C1/C(=C/c2cccc(Br)c2)CCc2ccccc21` had a TGI of 27.1 µM.

The compound `Cc1ccc(S(=O)(=O)n2cc(-c3cc(C(F)(F)F)ccn3)c3cc(Br)ccc32)cc1` gave a TGI greater than 100 µM.

The compound `CN(CCCCCl)P(=O)(OCc1ccc([N+](=O)[O-])o1)OC[C@H]1O[C@@H](n2cc(F)c(=O)[nH]c2=O)C[C@@H]1O` (stereo partly drawn) showed a TGI greater than 100 µM.

Turning to `CC1C2(C)OC(=N)C(C#N)(C(c3ccccc3)O2)C1(C#N)C#N` (stereo not drawn), the TGI was found to be 45.8 µM.

For the compound `O=C1NC2ON=C(c3ccccc3)C2C2ON=C(c3ccccc3)N12` (stereo not drawn), the TGI was greater than 100 µM.

The compound `COC(=O)C1(C(=O)OC)Cc2ccc(OC)cc2C2=C1C(=O)c1ccccc1C2=O` registered a TGI of 59.5 µM.

In turn, `COCCOC(=O)c1c(C)n([O-])c2cc(Cl)c(Cl)cc2[n+]1=O` yielded a TGI of 41.8 µM.

On to `COc1ccc2[nH]cc(CCNC(=O)[C@H](Cc3ccccc3)NC(=O)[C@@H](NCC(F)(F)F)C(C)C)c2c1`, for which the TGI is 31.5 µM.

For the compound `COc1ccc(Nc2nnc(-c3nsc4ccccc34)s2)cc1`, the TGI was greater than 100 µM.

As for `C=CCNC1=C2C[C@@H](C)C[C@@H](OC)[C@H](OC(=O)CCN)[C@H](C)/C=C(\C)[C@@H](OC(N)=O)[C@H](OC)/C=C\C=C(/C)C(=O)NC(=CC1=O)C2=O`, the TGI was 18.7 µM.

For `C1=NCCN2CCN(CCN=Cc3ccc(cc3)OCc3cccc(n3)COc3ccc1cc3)CC2`, the TGI is greater than 50 µM.

The compound `C(=C\c1cccs1)/c1cccc(/C=C/c2cccs2)n1` registered a TGI greater than 100 µM.

On to `CC(CCN)(CCN)[N+](=O)[O-]`, for which the TGI was greater than 100 µM.

The compound `C/C(CC(=O)Nc1ccc([N+](=O)[O-])cc1)=N\NC(N)=O` returned a TGI greater than 100 µM.
